According to patent US20060069132A1, “Azolecarboxamide herbicides” (priority 2004, published 2006):

Experiments:
blackgrass = assay: Test B postemergence herbicide test; type: in vivo, Alopecurus myosuroides; settings: postemergence, visual rating, scale 0 (no effect) to 100 (complete control)
Summary of the method: (§1)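 Plants grow to 1- to 4-leaf stage (2–18 cm) for postemergence spraying, or to 2-leaf stage for the paddy test. Formulated compound is applied. Greenhouse holding lasts 13–15 days. Response is scored visually relative to controls, 0 no effect to 100 complete control; a dash means no result.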

morningglory = assay: Test B pre-/postemergence herbicide test; type: in vivo, Ipomoea coccinea; settings: for Plant response rating, Morningglory: preemergence; for Morningglory plant response rating: postemergence, visual rating, scale 0 (no effect) to 100 (complete control)
Summary of the method: (§2)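 Species tested were Echinochloa crus-galli, Ipomoea coccinea, Xanthium strumarium and Oryza sativa, treated both before emergence and at the 1- to 4-leaf stage; rice and barnyardgrass were also tested under flooding at 2 leaves. Greenhouse incubation lasted 13–15 days before visual 0–100 scoring.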

rice [1] = assay: Test C flooded paddy test; type: in vivo, Oryza sativa
Summary of the method: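 Plants were grown to the 1- to 4-leaf stage (2–18 cm) and then treated postemergence, or grown to the 2-leaf stage for the flooded paddy test. They were held in a greenhouse for 12 to 14 days and then scored by eye against controls, where 0 is no effect and 100 is complete control.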

ducksalad [2] = assay: Test C flooded paddy test; type: in vivo, Heteranthera limosa
Surinam grass = assay: Test B pre-/postemergence herbicide test; type: in vivo, Urochloa decumbens; settings: for Plant response rating, Surinam Grass: preemergence; for Surinam Grass plant response rating: postemergence, visual rating, scale 0 (no effect) to 100 (complete control)
Summary of the method: (§3)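 Herbicidal effect was judged by eye on a 0–100 scale after plants stood 13 to 15 days in the greenhouse following pre- or postemergence treatment with surfactant-containing formulations.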

wheat = assay: Test B postemergence herbicide test; type: in vivo, Triticum aestivum; design: key to Wheat plant response rating: 0 = no effect, 100 = complete control; settings: postemergence, 500 g ai/ha; visual rating, scale 0 (no effect) to 100 (complete control)
Summary of the method: (§4)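 After treating 2-leaf paddy plants or 2–18 cm postemergence plants (1 to 4 leaves) with formulated chemical, researchers kept them in a greenhouse for 13–15 days. Effects were judged visually versus controls: 0 indicates none, 100 total control.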

rice [3] = assay: Test B flooded paddy test; type: in vivo, Oryza sativa; settings: 1000 g ai/ha, visual rating, scale 0 to 100 (0 no effect, 100 complete control), 13 to 15 days
Summary of the method: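 Treated at 2-leaf (paddy) or 1–4-leaf, 2–18 cm (postemergence); greenhouse 13–15 d; visual score vs control, 0 none to 100 complete control; dash = not tested.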

cocklebur = assay: Test B pre-/postemergence herbicide test; type: in vivo, Xanthium strumarium; settings: for Plant response rating, Cocklebur: preemergence; for Cocklebur plant response rating: postemergence, visual rating, scale 0 (no effect) to 100 (complete control)
Summary of the method: as §2

barnyardgrass [4] = assay: Test B flooded paddy test; type: in vivo, Echinochloa crus-galli; settings: 1000 g ai/ha, visual rating, scale 0 to 100 (0 no effect, 100 complete control), 13 to 15 days
Summary of the method: as §1

velvetleaf = assay: Test B pre-/postemergence herbicide test; type: in vivo, Abutilon theophrasti; settings: for Plant response rating, Velvetleaf: preemergence; for Velvetleaf plant response rating: postemergence, visual rating, scale 0 (no effect) to 100 (complete control)
Summary of the method: as §3

large crabgrass = assay: Test B pre-/postemergence herbicide test; type: in vivo, Digitaria sanguinalis; settings: for Plant response rating, Crabgrass, Large: preemergence; for Crabgrass, Large plant response rating: postemergence, visual rating, scale 0 (no effect) to 100 (complete control)
Summary of the method: as §3

wild oat = assay: Test B postemergence herbicide test; type: in vivo, Avena fatua; settings: postemergence, visual rating, scale 0 (no effect) to 100 (complete control)
Summary of the method: as §4

[5] = test system: smallflower umbrella sedge; assay: Test C flooded paddy test; type: in vivo, Cyperus difformis
pigweed = assay: Test B pre-/postemergence herbicide test; type: in vivo, Amaranthus retroflexus; settings: for Plant response rating, Pigweed: preemergence; for Pigweed plant response rating: postemergence, visual rating, scale 0 (no effect) to 100 (complete control)
Summary of the method: as §3

corn = assay: Test B pre-/postemergence herbicide test; type: in vivo, Zea mays; settings: for Plant response rating, Corn: preemergence; for Corn plant response rating: postemergence, visual rating, scale 0 (no effect) to 100 (complete control)
Summary of the method: as §3

ducksalad [6] = assay: Test B flooded paddy test; type: in vivo, Heteranthera limosa; settings: 1000 g ai/ha, visual rating, scale 0 to 100 (0 no effect, 100 complete control), 13 to 15 days
Summary of the method: as §1

giant foxtail = assay: Test B pre-/postemergence herbicide test; type: in vivo, Setaria faberi; settings: for Plant response rating, Foxtail, Giant: preemergence; for Foxtail, Giant plant response rating: postemergence, visual rating, scale 0 (no effect) to 100 (complete control)
Summary of the method: as §3

rice [7] = assay: Test B pre-/postemergence herbicide test; type: in vivo, Oryza sativa; settings: preemergence
Summary of the method: as §3

lambsquarters = assay: Test B pre-/postemergence herbicide test; type: in vivo, Chenopodium album; settings: for Plant response rating, Lambsquarters: preemergence; for Lambsquarters plant response rating: postemergence, visual rating, scale 0 (no effect) to 100 (complete control)
Summary of the method: as §3

barnyardgrass [8] = assay: Test C flooded paddy test; type: in vivo, Echinochloa crus-galli
Summary of the method: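 Weeds and wheat were sprayed after emergence, at a height of 2 to 18 cm (1–4 leaves), and paddy barnyardgrass was flooded and treated at two leaves. Assessment took place 12–14 days later in the greenhouse on a 0-to-100 visual control scale. A dash means no result was obtained.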

[9] = test system: small flower umbrella sedge; assay: Test B flooded paddy test; type: in vivo, Cyperus difformis; settings: 1000 g ai/ha, visual rating, scale 0 to 100 (0 no effect, 100 complete control), 13 to 15 days
Summary of the method: as §1

barnyardgrass [10] = assay: Test B pre-/postemergence herbicide test; type: in vivo, Echinochloa crus-galli; settings: for Plant response rating, Barnyardgrass: preemergence; for Barnyardgrass plant response rating: postemergence, visual rating, scale 0 (no effect) to 100 (complete control)
Summary of the method: as §2

[11] = 500 g ai/ha, visual rating 0-100, 0 no effect, 100 complete control
[12] = 125 g ai/ha, 0 to 100 scale, 0 is no effect, 100 is complete control
[13] = 62 g ai/ha, scale 0 to 100 (0 no effect, 100 complete control)
[14] = 125 g ai/ha, scale 0 to 100 (0 no effect, 100 complete control)
[15] = 250 g ai/ha, scale of 0 to 100, 0 is no effect, 100 is complete control
[16] = 500 g ai/ha, visual rating after 12 to 14 days, scale 0 to 100 (0 no effect, 100 complete control)

CCn1nc(C(C)(C)C)cc1C(=O)Nc1cc(C(=O)NCCOC)ccn1 [Compound 161]
Blackgrass plant response rating (blackgrass; 125 g ai/ha): 40
Blackgrass plant response rating (blackgrass; 500 g ai/ha): 40
Plant response rating, Morningglory (morningglory; [11]): 40
Morningglory plant response rating (morningglory; 125 g ai/ha): 20
Morningglory plant response rating (morningglory; 500 g ai/ha): 20
Plant response rating, Morningglory (morningglory; [12]): 10
Rice plant response rating (rice [1]; [13]): 0
Rice plant response rating (rice [1]; [14]): 10
Rice plant response rating (rice [1]; [15]): 60
Plant response rating, Rice (rice [1]; [16]): 65
Ducksalad plant response rating (ducksalad [2]; [13]): 30
Ducksalad plant response rating (ducksalad [2]; [14]): 65
Ducksalad plant response rating (ducksalad [2]; [15]): 80
Plant response rating, Ducksalad (ducksalad [2]; [16]): 90
Plant response rating, Surinam Grass (Surinam grass; [11]): 60
Surinam Grass plant response rating (Surinam grass; 125 g ai/ha): 20
Surinam Grass plant response rating (Surinam grass; 500 g ai/ha): 20
Plant response rating, Surinam Grass (Surinam grass; [12]): 10
Wheat plant response rating (wheat): 10
Rice plant response rating (rice [3]): 40
Plant response rating, Cocklebur (cocklebur; [11]): 0
Cocklebur plant response rating (cocklebur; 125 g ai/ha): 20
Cocklebur plant response rating (cocklebur; 500 g ai/ha): 30
Plant response rating, Cocklebur (cocklebur; [12]): 0
Barnyardgrass plant response rating (barnyardgrass [4]): 80
Plant response rating, Velvetleaf (velvetleaf; [11]): 70
Velvetleaf plant response rating (velvetleaf; 125 g ai/ha): 20
Velvetleaf plant response rating (velvetleaf; 500 g ai/ha): 50
Plant response rating, Velvetleaf (velvetleaf; [12]): 20
Plant response rating, Crabgrass, Large (large crabgrass; [11]): 100
Crabgrass, Large plant response rating (large crabgrass; 125 g ai/ha): 0
Crabgrass, Large plant response rating (large crabgrass; 500 g ai/ha): 10
Plant response rating, Crabgrass, Large (large crabgrass; [12]): 80
Oat, Wild plant response rating (wild oat; 125 g ai/ha): 30
Oat, Wild plant response rating (wild oat; 500 g ai/ha): 40
Sedge, Umbrella plant response rating [5, 13]: 0
Sedge, Umbrella plant response rating [5, 14]: 0
Sedge, Umbrella plant response rating [5, 15]: 25
Plant response rating, Sedge, Umbrella [5, 16]: 40
Plant response rating, Pigweed (pigweed; [11]): 100
Pigweed plant response rating (pigweed; 125 g ai/ha): 20
Pigweed plant response rating (pigweed; 500 g ai/ha): 60
Plant response rating, Pigweed (pigweed; [12]): 100
Plant response rating, Corn (corn; [11]): 10
Corn plant response rating (corn; 125 g ai/ha): 0
Corn plant response rating (corn; 500 g ai/ha): 0
Plant response rating, Corn (corn; [12]): 0
Ducksalad plant response rating (ducksalad [6]): 80
Plant response rating, Foxtail, Giant (giant foxtail; [11]): 100
Foxtail, Giant plant response rating (giant foxtail; 125 g ai/ha): 20
Foxtail, Giant plant response rating (giant foxtail; 500 g ai/ha): 30
Plant response rating, Foxtail, Giant (giant foxtail; [12]): 20
Plant response rating, Rice (rice [7]; [11]): 40
Plant response rating, Rice (rice [7]; [12]): 0
Plant response rating, Lambsquarters (lambsquarters; [11]): 100
Lambsquarters plant response rating (lambsquarters; 125 g ai/ha): 70
Lambsquarters plant response rating (lambsquarters; 500 g ai/ha): 70
Plant response rating, Lambsquarters (lambsquarters; [12]): 100
Barnyardgrass plant response rating (barnyardgrass [8]; [13]): 0
Barnyardgrass plant response rating (barnyardgrass [8]; 125 g ai/ha, scale of 0 to 100, 0 is no effect, 100 is complete control): 0
Barnyardgrass plant response rating (barnyardgrass [8]; [15]): 30
Plant response rating, Barnyardgrass (barnyardgrass [8]; [16]): 75
Sedge, Umbrella plant response rating [9]: 60
Plant response rating, Barnyardgrass (barnyardgrass [10]; [11]): 100
Barnyardgrass plant response rating (barnyardgrass [10]; 125 g ai/ha): 10
Barnyardgrass plant response rating (barnyardgrass [10]; 500 g ai/ha): 10
Plant response rating, Barnyardgrass (barnyardgrass [10]; [12]): 50
